Values of other authors in patent EP0417819A1, “Psycho-pharmacological peptides” (AKZO N.V., priority 1989, dated 1991).
Entries after “also recorded” stand apart in the source; their conditions may differ.

Test system: extinction of the (active) avoidance behaviour of rats
Settings: pole climbing test, state of the art, result in words

Row | Substance | extinction of the (active) avoidance behaviour
1 | a-endorphin | inhibit the extinction of the avoidance behaviour; also recorded: retarded
2 | met-enkephalin (YGGFM; Met-enkephalin; UniProt P01189 237-241, looked up) [smaller peptide fragment derived from β-endorphin] | inhibit the extinction of the avoidance behaviour
3 | y-endorphin (YGGFMTSEKSQTPLVTL; Beta-endorphin; UniProt P01189 237-253, looked up, fragment) [β-endorphin (1-17)] | accelerate the extinction of the avoidance behaviour
4 | β-endorphin (YGGFMTSEKSQTPLVTLFKNAIIKNAYKKGE; Beta-endorphin; UniProt P01189 237-267, looked up) [(59-89) fragments of β-LPH] | delays the extinction
